Results as given in ChEMBL document CHEMBL1134752 (Bioorg Med Chem Lett, 2001).
pIC50: −log10 of the molar value.

Legend:
[1] = target: T1, Prostaglandin G/H synthase 2 (Homo sapiens, UniProt P35354); assay: In vitro inhibition of Prostaglandin G/H synthase 2 in human whole blood assay; assay type: tissue-based
T1 sequence (P35354 whole entry): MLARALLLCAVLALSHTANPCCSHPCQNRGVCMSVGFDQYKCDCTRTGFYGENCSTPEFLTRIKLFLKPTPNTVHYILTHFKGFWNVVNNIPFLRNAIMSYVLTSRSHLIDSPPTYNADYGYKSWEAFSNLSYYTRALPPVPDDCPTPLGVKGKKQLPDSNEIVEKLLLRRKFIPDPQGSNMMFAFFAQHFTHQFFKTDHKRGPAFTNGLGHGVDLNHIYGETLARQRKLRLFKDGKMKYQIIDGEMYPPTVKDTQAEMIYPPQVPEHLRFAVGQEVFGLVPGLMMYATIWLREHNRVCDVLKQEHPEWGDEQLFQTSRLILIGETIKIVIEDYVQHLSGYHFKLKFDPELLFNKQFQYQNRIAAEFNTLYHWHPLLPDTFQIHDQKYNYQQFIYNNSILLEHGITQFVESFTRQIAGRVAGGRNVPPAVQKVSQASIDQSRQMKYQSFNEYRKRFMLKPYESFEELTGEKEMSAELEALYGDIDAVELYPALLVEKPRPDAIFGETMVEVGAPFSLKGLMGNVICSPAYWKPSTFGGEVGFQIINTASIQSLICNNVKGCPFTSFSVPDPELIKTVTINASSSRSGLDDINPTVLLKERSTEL

[2] = target: Prostaglandin G/H synthase 1 (Homo sapiens, UniProt P23219); assay: In vitro inhibition of Prostaglandin G/H synthase 1 in human whole blood assay; assay type: tissue-based
[3] = Half-life in human; assay type: ADME, organism-based; conditions: in vivo

Prostaglandin G/H synthase 1, sequence (P23219 whole entry): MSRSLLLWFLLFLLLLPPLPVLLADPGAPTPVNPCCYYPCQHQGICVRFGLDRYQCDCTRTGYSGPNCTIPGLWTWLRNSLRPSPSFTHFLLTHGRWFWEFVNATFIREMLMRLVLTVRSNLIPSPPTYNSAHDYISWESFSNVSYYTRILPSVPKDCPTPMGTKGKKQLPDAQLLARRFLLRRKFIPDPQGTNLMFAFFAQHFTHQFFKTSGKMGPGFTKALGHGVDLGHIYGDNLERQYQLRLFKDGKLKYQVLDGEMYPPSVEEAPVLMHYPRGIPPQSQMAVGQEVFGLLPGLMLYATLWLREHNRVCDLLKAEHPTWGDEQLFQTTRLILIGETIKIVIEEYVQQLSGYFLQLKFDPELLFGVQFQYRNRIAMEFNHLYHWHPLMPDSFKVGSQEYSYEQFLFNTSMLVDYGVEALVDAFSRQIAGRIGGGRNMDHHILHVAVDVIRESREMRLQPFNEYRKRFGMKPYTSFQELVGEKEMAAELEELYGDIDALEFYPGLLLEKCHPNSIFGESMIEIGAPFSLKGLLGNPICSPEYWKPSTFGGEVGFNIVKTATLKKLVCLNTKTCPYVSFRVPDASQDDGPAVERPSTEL

Row | SMILES | pIC50 [1] | pIC50 [2] | half-life [3]
1 | CC(C)OC1=C(c2ccc(S(C)(=O)=O)cc2)C(C)(C)OC1=O |  |  | 64 h
2 | CS(=O)(=O)c1ccc(-c2cc(Cl)cnc2-c2ccc(C(=O)O)nc2)cc1 | 4.68 | < 4.00 | 
3 | Cc1ccc(-c2ncc(Cl)cc2-c2ccc(S(C)(=O)=O)cc2)c[n+]1[O-] | 4.74 | < 4.00 | 
4 | Cc1ccc(-c2ncc(Cl)cc2-c2ccc(S(C)(=O)=O)cc2)cn1 [ETORICOXIB] |  | < 4.00 | 

Continued, in another order:

Row | pIC50 [1] | pIC50 [2] | SMILES | half-life [3]
5 | < 4.48 | < 4.00 | CS(=O)(=O)c1ccc(-c2cc(Cl)cnc2-c2ccc(CO)nc2)cc1 | 
6 | < 4.48 | < 4.00 | CS(=O)(=O)c1ccc(-c2cc(Cl)cnc2-c2ccc(CO[C@@H]3O[C@@H](C(=O)O)[C@@H](O)[C@H](O)[C@@H]3O)nc2)cc1 | 
